# Measured values reported in US20260258004A1, “CRYSTALLINE FORMS OF (6S)-5-[4'-FLUORO-2-(TRIFLUOROMETHYL)BIPHENYL-4-YL]-6-METHYL-3,6- DIHYDRO-2H-l,3,4-OXADIAZIN-2-ONE” (Bayer Aktiengesellschaft, priority 2022, published 2026).
# Experiments:
# Assay type in all cases: physicochemical
# [1] = Schulze ring shear test (flow properties); details: normal load 1.5 kPa, 24° C., humidity 30%, no storage time
# From the text: The device used is the Schulze ring shear tester RST-XS.s for which a general technical product information is available on http://www.dietmar-schulze.de. We were using the shear cell XS-SV3. A statement referring to the testing procedure from the technical product information for RST-XS.s reads as follows: • “Testing procedure: The powder sample is contained in an annular shear cell “(FIG. 19B). • “A vertical load ? N] is applied through a thin loading rod on the annular lid. To shear the sample, the shear cell rotates relative to the lid (direction ω), and the torque necessary for shearing is determined from forces and F1 and F2 acting in a tie rod and a push rod. Following a well-defined procedure, which is executed computer-controlled, the flow properties are measured. […]
# During the shear test, the bottom ring slowly rotated in the direction of the arrow with the low rotational speed ω of 2 rpm maximum. Rotation of the lid was prevented by the tension rods; the tensile forces F1 and F2 necessary to achieve this are measured by the load cells. From the normal and shear forces respectively stresses, the so-called yield locus was determined, which describes the flow behavior of a bulk solid. […]
# The experimental data obtained were analyzed following the method described in Schulze, D. (2008). […] FIG. 21 provides the flow factor of both samples as calculated on basis of the ring shear experiment. […]
# [2] = Hygroscopicity classification applying the Pharmacopeia rules
# From the text: The shear cell was fully filled with a sample of powder of the compound of formula (I) thereby preventing condensing the powder. Both samples, sample 1 and sample 2, were classified as non-hydroscopic applying the Pharmacopeia rules.
# [3] = Determination of bulk density during shear tests; details: during shear test
# Procedure: Because of the normal stress of 1.5 kPa applied on the top of the lid during the shear test the lid lowers into the shear cell and compresses the powder.
# During the shear tests this lowering of the lid is measured and recorded. Since the volume of the bottom ring is known and weight of the sample measured before the beginning of the shear test the bulk density of the sample during the shear test is calculated
# [formula] • with: • ρb,shear: Bulk density under shear • mges: total mass of shear cell including powder sample (w/o lid) • mcell: net mass of shear cell (w/o powder sample, w/o lid) • hc: height of the bottom ring • hl: lowering of lid • Acell: bottom area of shear cell
# The calculation of the bulk density is done automatically with the evaluation software provided together with the shear tester.
smiles,measurement,setting,value
"C[C@@H]1OC(=O)NN=C1c1ccc(-c2ccc(F)cc2)c(C(F)(F)F)c1 [polymorph C, (6S)-5-[4′-Fluoro-2-(trifluoromethyl)biphenyl-4-yl]-6-methyl-3,6-dihydro-2H-1,3,4-oxadiazin-2-one]",flow behaviour (flow factor ffc),[1],flowing a bit better than polymorph A
same,hygroscopicity classification,[2],non-hydroscopic
same,bulk density compared with sample 1 (FIG. 22),[3],significantly higher
same,bulk density,[3]; normal stress 1.5 kPa,about 550 kg/m^3
